Experimental data published in US10105357B2, “Indication of antibiotic drugs for preparation of cancer inhibition pharmaceutical composition” (LAUNX BIOMEDICAL CO., LTD., priority 2014, dated 2018).
Counter-ions that a name gives are not always drawn. Like-named read-outs stand apart in the source and are kept apart here.

Legend:
cancer cell lines = assay: Cell viability analysis (WST-1) on cancer cell lines; format: cell-based, human; settings: drug 10 μM, 72 hours, WST-1; Table 3
[1] = test system: HI650 (Lung Adenocarcinoma); assay: Cell viability analysis, lung cancer HI650; format: cell-based, human; settings: Homo sapiens
[2] = test system: A549 (Lung Adenocarcinoma); assay: Cell viability analysis, lung cancer A549; format: cell-based, human; settings: Homo sapiens, A549
[3] = test system: AGS (Gastric Adenocarcinoma); assay: Cell viability analysis, gastric cancer AGS; format: cell-based, human; settings: Homo sapiens
[4] = test system: MKN-45 (Gastric Adenocarcinoma); assay: Cell viability analysis, gastric cancer MKN-45; format: cell-based, human; settings: Homo sapiens, MKN-45
[5] = test system: HepG2 (Hepatocellular Carcinoma); assay: Cell viability analysis, hepatic cancer HepG2; format: cell-based, human; settings: Homo sapiens, HepG2
[6] = test system: Hep3B (hepatocellular carcinoma); assay: Cell viability analysis, hepatic cancer Hep3B; format: cell-based, human; settings: Homo sapiens, Hep3B, 72 h, read-out: The results of antibiotic drug inhibiting cancer cell lines (cell viability analysis), Hep3B
[7] = test system: LoVo (Colorectal Adenocarcinoma); assay: Cell viability analysis, colon cancer LoVo; format: cell-based, human; settings: Homo sapiens, LoVo
[8] = test system: A375 (Amelanotic Melanoma); assay: Cell viability analysis, skin cancer A375; format: cell-based, human; settings: Homo sapiens
[9] = test system: BCC (basal cell carcinoma); assay: Cell viability analysis, skin cancer BCC; format: cell-based, human; settings: Homo sapiens, 72 h, read-out: The results of antibiotic drug inhibiting cancer cell lines (cell viability analysis), BCC
[10] = test system: HeLa (Cervix Adenocarcinoma); assay: Cell viability analysis, cervical cancer HeLa; format: cell-based, human; settings: Homo sapiens, HeLa
[11] = test system: C-33A (Cervical carcinoma); assay: Cell viability analysis, cervical cancer C-33A; format: cell-based, human; settings: Homo sapiens, C-33-A, 72 h, read-out: The results of antibiotic drug inhibiting cancer cell lines (cell viability analysis), C-33A
[12] = test system: PC3 (p53−) (Prostate Adenocarcinoma); assay: Cell viability analysis, prostate cancer PC3; format: cell-based, human; settings: Homo sapiens
[13] = test system: TSGH-8301 (Urinary Bladder Carcinoma); assay: Cell viability analysis, bladder cancer TSGH-8301; format: cell-based, human; settings: Homo sapiens
T24 = assay: Cell viability analysis, bladder cancer T24; format: cell-based, human; settings: Homo sapiens, T-24, 72 h, read-out: The results of antibiotic drug inhibiting cancer cell lines (cell viability analysis), T24
[14] = test system: MCF7 (Mammary Gland, Adenocarcinoma); assay: Cell viability analysis, breast cancer MCF7; format: cell-based, human; settings: Homo sapiens
[15] = test system: MDA-MB-231 (Mammary Gland, Adenocarcinoma); assay: Cell viability analysis, breast cancer MDA-MB-231; format: cell-based, human; settings: Homo sapiens, MDA-MB-231, 72 h, read-out: The results of antibiotic drug inhibiting cancer cell lines (cell viability analysis), MDA-MB231
BxPC-3 = assay: Cell viability analysis, pancreatic cancer BxPC-3; format: cell-based, human; settings: Homo sapiens, BXPC-3, 72 h, read-out: The results of antibiotic drug inhibiting cancer cell lines (cell viability analysis), BxPC-3
AsPC-1 = assay: Cell viability analysis, pancreatic cancer AsPC-1; format: cell-based, human; settings: Homo sapiens, ASPC1, 72 h, read-out: The results of antibiotic drug inhibiting cancer cell lines (cell viability analysis), AsPC-1
NIH: OVCAR-3 = assay: Cell viability analysis, ovarian cancer NIH: OVCAR-3; format: cell-based, human; settings: Homo sapiens, OVCAR-3, 72 h, read-out: The results of antibiotic drug inhibiting cancer cell lines (cell viability analysis), NIH-OVCAR-3
TOV-21G = assay: Cell viability analysis, ovarian cancer TOV-21G; format: cell-based, human; settings: Homo sapiens, TOV21G, 72 h, read-out: The results of antibiotic drug inhibiting cancer cell lines (cell viability analysis), TOV-21G
[16] = test system: SAS (Tongue squamous cell carcinoma); assay: Cell viability analysis, tongue cancer SAS; format: cell-based, human; settings: Homo sapiens, 72 h, read-out: The results of antibiotic drug inhibiting cancer cell lines (cell viability analysis), SAS
U-2OS = assay: Cell viability analysis, osteosarcoma U-2OS; format: cell-based, human; settings: Homo sapiens, U2OS, 72 h, read-out: The results of antibiotic drug inhibiting cancer cell lines (cell viability analysis), U2OS
[17] = test system: 786-O (Renal adenocarcinoma); assay: Cell viability analysis, renal cancer 786-O; format: cell-based, human; settings: Homo sapiens, 786-0, 72 h, read-out: The results of antibiotic drug inhibiting cancer cell lines (cell viability analysis), 786-O
[18] = test system: HCT116 (p53+) (Colorectal Carcinoma)
[19] = test system: HL-60 (Acute Promyelocytic Leukemia); assay: Cell viability analysis, leukemia HL-60; format: cell-based, human; settings: Homo sapiens, HL-60; drug 10 μM, 72 hours, WST-1, OD450 nm; read-out: cell viability (survival rate), HL-60
[20] = NCI-H1650, 72 h, H1650, repeated experiment, read-out: The results of antibiotic drug inhibiting cancer cell lines (cell viability analysis), H1650
[21] = NCI-H1650, drug 10 μM, 72 hours, WST-1, OD450 nm, read-out: cell viability (survival rate), H1650
[22] = 72 h, repeated experiment, read-out: The results of antibiotic drug inhibiting cancer cell lines (cell viability analysis), A549
[23] = drug 10 μM, 72 hours, WST-1, OD450 nm, read-out: cell viability (survival rate), A549
[24] = 72 h, AGS, repeated experiment, read-out: The results of antibiotic drug inhibiting cancer cell lines (cell viability analysis), AGS
[25] = drug 10 μM, 72 hours, WST-1, OD450 nm, read-out: cell viability (survival rate), AGS
[26] = 72 h, repeated experiment, read-out: The results of antibiotic drug inhibiting cancer cell lines (cell viability analysis), MKN-45
[27] = drug 10 μM, 72 hours, WST-1, OD450 nm, read-out: cell viability (survival rate), MKN-45
[28] = 72 h, repeated experiment, read-out: The results of antibiotic drug inhibiting cancer cell lines (cell viability analysis), HepG2
[29] = drug 10 μM, 72 hours, WST-1, OD450 nm, read-out: cell viability (survival rate), HepG2
[30] = 72 h, repeated experiment, read-out: The results of antibiotic drug inhibiting cancer cell lines (cell viability analysis), LoVo
[31] = drug 10 μM, 72 hours, WST-1, OD450 nm, read-out: cell viability (survival rate), LoVo
[32] = A-375, 72 h, A375, repeated experiment, read-out: The results of antibiotic drug inhibiting cancer cell lines (cell viability analysis), A375
[33] = A-375, drug 10 μM, 72 hours, WST-1, OD450 nm, read-out: cell viability (survival rate), A375
[34] = 72 h, repeated experiment, read-out: The results of antibiotic drug inhibiting cancer cell lines (cell viability analysis), HeLa
[35] = drug 10 μM, 72 hours, WST-1, OD450 nm, read-out: cell viability (survival rate), HeLa
[36] = 72 h, PC-3, repeated experiment, read-out: The results of antibiotic drug inhibiting cancer cell lines (cell viability analysis), PC-3
[37] = drug 10 μM, 72 hours, WST-1, OD450 nm, read-out: cell viability (survival rate), PC3
[38] = 72 h, TSGH-8301, repeated experiment, read-out: The results of antibiotic drug inhibiting cancer cell lines (cell viability analysis), TSGH-8301
[39] = drug 10 μM, 72 hours, WST-1, OD450 nm, read-out: cell viability (survival rate), TSGH
[40] = MCF7, 72 h, MCF-7, repeated experiment, read-out: The results of antibiotic drug inhibiting cancer cell lines (cell viability analysis), MCF-7
[41] = MCF7, drug 10 μM, 72 hours, WST-1, OD450 nm, read-out: cell viability (survival rate), MCF7

CN(C)C(=O)C(CCN1CCC(O)(c2ccc(Cl)cc2)CC1)(c1ccccc1)c1ccccc1 [Loperamide hydrochloride]
inhibition effect on different cancer cell lines (cancer cell lines): significant inhibition effect
viability at 10 µM [1, 20]: 41.3%
viability at 10 µM [1, 21]: 66.7%
viability at 10 µM [2, 22]: 26.2%
viability at 10 µM [2, 23]: 104%
viability at 10 µM [3, 24]: 22.2%
viability at 10 µM [3, 25]: 57.3%
viability at 10 µM [4, 26]: 61.5%
viability at 10 µM [4, 27]: 64.3%
viability at 10 µM [5, 28]: 35.8%
viability at 10 µM [5, 29]: 103%
viability at 10 µM [6]: 50.2%
viability at 10 µM [7, 30]: 49.3%
viability at 10 µM [7, 31]: 64.8%
viability at 10 µM [8, 32]: 34.3%
viability at 10 µM [8, 33]: 58.8%
viability at 10 µM [9]: 51.5%
viability at 10 µM [10, 34]: 36.8%
viability at 10 µM [10, 35]: 73%
viability at 10 µM [11]: 39.6%
viability at 10 µM [12, 36]: 41.6%
viability at 10 µM [12, 37]: 64.7%
viability at 10 µM [13, 38]: 42.9%
viability at 10 µM [13, 39]: 42.7%
viability at 10 µM (T24): 73.5%
viability at 10 µM [14, 40]: 36.2%
viability at 10 µM [14, 41]: 78.9%
viability at 10 µM [15]: 72.5%
viability at 10 µM (BxPC-3): 35.7%
viability at 10 µM (AsPC-1): 47.5%
viability at 10 µM (NIH: OVCAR-3): 75.5%
viability at 10 µM (TOV-21G): 24.2%
viability at 10 µM [16]: 31.8%
viability at 10 µM (U-2OS): 32%
viability at 10 µM [17]: 40.9%
viability [18]: 47.3%

CCC[C@H](NC(=O)[C@@H]1[C@H]2CCC[C@H]2CN1C(=O)[C@@H](NC(=O)[C@@H](NC(=O)c1cnccn1)C1CCCCC1)C(C)(C)C)C(=O)C(=O)NC1CC1 [Telaprevir (VX-950), Telaprevir]
viability at 10 µM [1, 20]: 107%
viability at 10 µM [1, 21]: 51.6%
viability at 10 µM [2, 22]: 80.4%
viability at 10 µM [2, 23]: 49.3%
viability at 10 µM [3, 24]: 111%
viability at 10 µM [3, 25]: 49.2%
viability at 10 µM [4, 26]: 107%
viability at 10 µM [4, 27]: 48%
viability at 10 µM [5, 28]: 114%
viability at 10 µM [5, 29]: 100%
viability at 10 µM [6]: 121%
viability at 10 µM [7, 30]: 87%
viability at 10 µM [7, 31]: 73.7%
viability at 10 µM [8, 32]: 105%
viability at 10 µM [8, 33]: 131%
viability at 10 µM [9]: 92.5%
viability at 10 µM [10, 34]: 92.6%
viability at 10 µM [10, 35]: 84%
viability at 10 µM [11]: 102%
viability at 10 µM [12, 36]: 89.2%
viability at 10 µM [12, 37]: 50%
viability at 10 µM [13, 38]: 103%
viability at 10 µM [13, 39]: 50.2%
viability at 10 µM (T24): 115%
viability at 10 µM [14, 40]: 76.4%
viability at 10 µM [14, 41]: 61.6%
viability at 10 µM [15]: 95.6%
viability at 10 µM (BxPC-3): 63.9%
viability at 10 µM (AsPC-1): 69.3%
viability at 10 µM (NIH: OVCAR-3): 95.6%
viability at 10 µM (TOV-21G): 81.6%
viability at 10 µM [16]: 67.6%
viability at 10 µM (U-2OS): 63.4%
viability at 10 µM [17]: 94.8%
viability at 10 µM [19]: 111%
viability [18]: 93.6%
